{
  "source": "patent US9546362B2",
  "about": "(priority 2011, dated 2017)",
  "molecules": {"B1": {"name": "CsHCS1: Cannabis sativa hexanoyl-CoA synthetase 1, alkanoyl-CoA synthetase, SEQ ID NO: 2 (protein, listed as Cannabis sativa)", "chain": "MGKNYKSLDSVVASDFIALGITSEVAETLHGRLAEIVCNYGAATPQTWINIANHILSPDLPFSLHQMLFYGCYKDFGPAPPAWIPDPEKVKSTNLGALLEKRGKEFLGVKYKDPISSFSHFQEFSVRNPEVYWRTVLMDEMKISFSKDPECILRRDDINNPGGSEWLPGGYLNSAKNCLNVNSNKKLNDTMIVWRDEGNDDLPLNKLTLDQLRKRVWLVGYALEEMGLEKGCAIAIDMPMHVDAVVIYLAIVLAGYVVVSIADSFSAPEISTRLRLSKAKAIFTQDHIIRGKKRIPLYSRVVEAKSPMAIVIPCSGSNIGAELRDGDISWDYFLERAKEFKNCEFTAREQPVDAYTNILFSSGTTGEPKAIPWTQATPLKAAADGWSHLDIRKGDVIVWPTNLGWMMGPWLVYASLLNGASIALYNGSPLVSGFAKFVQDAKVTMLGVVPSIVRSWKSTNCVSGYDWSTIRCFSSSGEASNVDEYLWLMGRANYKPVIEMCGGTEIGGAFSAGSFLQAQSLSSFSSQCMGCTLYILDKNGYPMPKNKPGIGELALGPVMFGASKTLLNGNHHDVYFKGMPTLNGEVLRRHGDIFELTSNGYYHAHGRADDTMNIGGIKISSIEIERVCNEVDDRVFETTAIGVPPLGGGPEQLVIFFVLKDSNDTTIDLNQLRLSFNLGLQKKLNPLFKVTRVVPLSSLPRTATNKIMRRVLRQFSHFE"}},
  "key": {"[1]": {"tested_on": "CC(C)(COP(=O)(O)OP(=O)(O)OC[C@H]1O[C@@H](n2cnc3c(N)ncnc32)[C@H](O)[C@@H]1OP(=O)(O)O)[C@@H](O)C(=O)NCCC(=O)NCCS", "assay": "purified protein, by the assay type"}, "CCCCCCCCCC(=O)O": {"tested_on": "CCCCCCCCCC(=O)O", "assay": "purified protein, by the assay type", "details": "other: CsHCS1, Table 5"}, "CCCCCC(=O)O [2]": {"tested_on": "CCCCCC(=O)O", "assay": "purified protein, by the assay type", "details": "other: CsHCS1, Table 5"}, "CCCCCC(=O)O [3]": {"tested_on": "CCCCCC(=O)O", "assay": "purified protein, by the assay type", "assay_type": "biochemical, Cannabis sativa", "details": "other: CsHCS1, substrate hexanoate; pH 9.0; 40.0 °C"}, "CsHCS1 [4]": {"biological_target": "T1, CsHCS1 (Cannabis sativa, UniProt H9A1V3, DEL715-715)", "assay": "biochemical"}, "CsHCS2 [5]": {"biological_target": "T2, CsHCS2 (Cannabis sativa, UniProt A0A7J6I5X8)", "T2 sequence (A0A7J6I5X8 entry or part of it)": "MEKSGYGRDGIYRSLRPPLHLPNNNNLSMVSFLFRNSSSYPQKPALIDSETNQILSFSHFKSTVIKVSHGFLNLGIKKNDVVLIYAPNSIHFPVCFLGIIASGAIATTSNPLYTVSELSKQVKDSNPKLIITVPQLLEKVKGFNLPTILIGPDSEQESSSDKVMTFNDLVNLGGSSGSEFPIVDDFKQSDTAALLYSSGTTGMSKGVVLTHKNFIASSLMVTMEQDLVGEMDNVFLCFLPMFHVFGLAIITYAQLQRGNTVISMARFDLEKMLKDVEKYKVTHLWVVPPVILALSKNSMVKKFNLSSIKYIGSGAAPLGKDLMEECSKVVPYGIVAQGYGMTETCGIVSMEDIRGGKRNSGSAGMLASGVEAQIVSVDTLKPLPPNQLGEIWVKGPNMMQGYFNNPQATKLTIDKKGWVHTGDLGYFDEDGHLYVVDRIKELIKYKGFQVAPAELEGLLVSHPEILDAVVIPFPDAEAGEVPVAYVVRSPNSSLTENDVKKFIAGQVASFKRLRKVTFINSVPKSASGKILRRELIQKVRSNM", "assay": "Kinetic properties, separate experiment (Table 5)", "assay_type": "biochemical"}, "[6]": {"tested_on": "olivetolic acid synthesis", "assay": "Coupled enzymatic assay for olivetolic acid synthesis (CsHCS2, MCS, olivetol synthase/PKS, OAS)", "assay_type": "biochemical, Cannabis sativa", "details": "0.3 μg CsHCS2, 4 mM hexanoate, room temperature, 16 h, FIG. 4", "procedure": "Eluted compounds were detected by absorbance at 263 nm and identified both by having the same retention times as isolated standards, and by their mass using a single quadrapole mass detector. […] HTAL=hexanoyltriacetic lactone, PDAL=pentyldiacetic lactone, OA=olivetolic acid, OL=olivetol.\nThe reaction was incubated at room temperature for 16 h, acidified and extracted in ethyl acetate. The polar fraction was recovered, evaporated to dryness and resuspended in 50 μL of methanol. An aliquot (5 μL) was analyzed by LCMS, and products were identified by their retention times and masses (see FIG. 4)."}, "CsHCS2 [7]": {"biological_target": "T2, CsHCS2", "protocol": "The reactions were incubated for 10 min at 40° C., terminated with 2 μL of 1 N HCl and stored on ice until analysis.\nThe reaction mixtures were diluted 1:100 with water and subsequently separated using a Waters Acquity UPLC system fitted with an Acquity UPLC BEH C18 column (1.7 μm particle size, 2.1×50 mm column), and analyzed by MS/MS using a Micromass Quattro Ultima triple-quadrupole mass spectrometer. The solvent system used was buffer A: 5 mM TEA and 3 mM acetic acid in water, and buffer B: 5 mM TEA and 3 mM acetic acid in 95:5 methanol:water. The mass spectrometer settings were: ESI positive mode, collision energy 27 V, cone 135 V, scanning for 866>359 transitions."}, "CsHCS2 [8]": {"biological_target": "T2, CsHCS2", "assay": "Carboxylic acid substrate range, luciferin/luciferase measurement of unconsumed ATP", "assay_type": "biochemical", "details": "CsHCS2, 500 μM carboxylic acid, 50 μM ATP, 3 h at 29° C., FIG. 3B", "procedure": "(§1) To test the range of carboxylic acids that CsHCS1 and CsHCS2 can activate, enzyme assays were performed with a broad range of carboxylic acids and limiting ATP. The assay conditions used were similar to Schneider K et al. (2005). A new type of peroxisomal acyl-coenzyme A synthetase from Arabidopsis thaliana has the catalytic capacity to activate biosynthetic precursors of jasmonic acid. The Journal of Biological Chemistry, 280:13962-72. […] All carboxylic acid substrates were dissolved in 2% v/v Triton™ X-100, leading to a final concentration 0.05% Triton X-100 in the assay. After reacting for 3 h at 29° C., 10 μL aliquots of the reactions were transferred to 96-well plates for a luciferin/luciferase based measurement of unconsumed ATP. The plates were analyzed with a 1420 Multilabel counter (PerkinElmer). To each well, 90 μL of a solution containing 100 mM Tris pH 7.8, 1 mM MgCl2, 2.3 μg luciferin, and 0.5 μg of luciferase was injected, and after shaking for 2 seconds the luminescence was measured for 15 seconds without a filter in place. Lower readings, compared to the reactions with no carboxylic acid substrate, indicate a higher amount of enzymatic activity and therefore substrate utilization. The results are shown in FIG. 3, wherein error bars represent the percent error of the ratio, n=3."}, "CsHCS1 [9]": {"biological_target": "T1, CsHCS1", "assay": "Hexanoyl-CoA synthetase activity (LC-MS/MS)", "assay_type": "biochemical", "parameters": "His8 (pHIS8/GW vector) (N); made in house; host or cells: E. coli Rosetta 2"}, "CsHCS1 [10]": {"biological_target": "T1, CsHCS1", "details": "CsHCS1, Table 5"}, "CsHCS1 [11]": {"biological_target": "T1, CsHCS1", "assay": "Carboxylic acid substrate range, luciferin/luciferase measurement of unconsumed ATP", "assay_type": "biochemical", "parameters": "His8 (pHIS8/GW vector) (N); made in house; host or cells: E. coli Rosetta 2", "details": "CsHCS1, 500 μM carboxylic acid, 50 μM ATP, 3 h at 29° C., FIG. 3A", "procedure": "as §1"}},
  "note": "Read-outs that look alike come from different tables or passages of the source.",
  "data": [
    {"molecule": "CsHCS1 (Cannabis sativa; DEL715-715)", "values": [
      {"measurement": "Km", "setting": "[1]; other: CsHCS1, Table 5", "value": "0.26 ± 0.05", "unit": "μM μM"},
      {"measurement": "Km", "setting": "CCCCCCCCCC(=O)O", "value": "1.7 ± 0.2", "unit": "mM mM"},
      {"measurement": "Km", "setting": "CCCCCC(=O)O [2]", "value": "3.7 ± 0.7", "unit": "mM mM"},
      {"measurement": "Km", "setting": "CCCCCC(=O)O [3]", "value": "6.1 ± 1.0", "unit": "mM"},
      {"measurement": "Vmax", "setting": "CCCCCC(=O)O [3]", "value": "15.6±1.7", "unit": "pKat"},
      {"measurement": "kcat", "setting": "CCCCCC(=O)O [3]", "value": 4.5, "unit": "s⁻¹"}
    ]},
    {"molecule": "CC(C)(COP(=O)(O)OP(=O)(O)OC[C@H]1O[C@@H](n2cnc3c(N)ncnc32)[C@H](O)[C@@H]1OP(=O)(O)O)[C@@H](O)C(=O)NCCC(=O)NCCS", "note": "[CoA, coenzyme A]", "values": [
      {"measurement": "Ki", "setting": "CsHCS1 [4]", "value": "5100 ± 1800", "unit": "µM"},
      {"measurement": "inhibition of CsHCS2", "setting": "CsHCS2 [5]", "value": "did not inhibit"}
    ]},
    {"molecule": "CsHCS2 (Cannabis sativa)", "values": [
      {"measurement": "Km", "setting": "[1]; other: CsHCS2, Table 5", "value": "0.16 ± 0.01", "unit": "μM μM"}
    ]},
    {"molecule": "CsHCS2: Cannabis sativa hexanoyl-CoA synthetase 2, alkanoyl-CoA synthetase, SEQ ID NO: 4", "values": [
      {"measurement": "supply of hexanoyl-CoA for olivetolic acid synthesis", "setting": "[6]", "value": "capable of providing sufficient hexanoyl-CoA substrate for the synthesis of olivetolic acid"},
      {"measurement": "pH optimum", "setting": "CsHCS2 [7]", "value": 9},
      {"measurement": "temperature optimum", "setting": "CsHCS2 [7]", "value": 40, "unit": "°C"}
    ]},
    {"molecule": "O=C(O)/C=C/c1ccc(O)cc1", "note": "[p-coumarate]", "values": [
      {"measurement": "utilization as substrate", "setting": "CsHCS2 [8]", "value": "to a lesser extent"}
    ]},
    {"molecule": "[Mg+2]", "note": "[Mg^2+]", "values": [
      {"measurement": "use of divalent cation", "setting": "CsHCS1 [9]; CsHCS1, range of divalent cations tested", "value": "optimally used"},
      {"measurement": "activity with divalent cation", "setting": "CsHCS2 [7]", "value": "high"}
    ]},
    {"molecule": "[Ca+2]", "note": "[Ca^2+]", "values": [
      {"measurement": "activity with divalent cation", "setting": "CsHCS2 [7]", "value": "to a lesser extent"}
    ]},
    {"molecule": "CCCC(=O)O", "note": "[butanoate]", "values": [
      {"measurement": "Km", "setting": "CsHCS1 [10]", "value": "> 10", "unit": "mM"},
      {"measurement": "Km", "setting": "CsHCS2 [5]; read-out: Km", "value": "> 10", "unit": "mM"}
    ]},
    {"molecule": "[Mn+2]", "note": "[Mn^2+]", "values": [
      {"measurement": "activity with divalent cation", "setting": "CsHCS2 [7]", "value": "high"}
    ]},
    {"molecule": "O=C(O)/C=C/c1ccccc1", "note": "[cinnamate]", "values": [
      {"measurement": "utilization as substrate", "setting": "CsHCS2 [8]", "value": "able to utilize"}
    ]},
    {"molecule": "CCCCC(=O)O", "note": "[valerate]", "values": [
      {"measurement": "utilization as substrate", "setting": "CsHCS1 [11]", "value": "to a lesser extent"}
    ]},
    {"molecule": "CCCCCCCC(=O)O", "note": "[octanoate]", "values": [
      {"measurement": "utilization as substrate", "setting": "CsHCS1 [11]", "value": "utilize"}
    ]},
    {"molecule": "[Co+2]", "note": "[Co^2+]", "values": [
      {"measurement": "activity with divalent cation", "setting": "CsHCS2 [7]", "value": "highest"}
    ]},
    {"molecule": "CCCCCCCCCC(=O)O", "note": "[decanoate]", "values": [
      {"measurement": "Ki", "setting": "CsHCS2 [5]", "value": "121 ± 47.9", "unit": "µM"},
      {"measurement": "Km", "setting": "CsHCS2 [5]; CsHCS2, Table 5", "value": "0.0161 ± 0.0058", "unit": "mM"}
    ]},
    {"molecule": "B1", "values": [
      {"measurement": "pH optimum", "setting": "CsHCS1 [9]; enzyme CsHCS1", "value": 9},
      {"measurement": "temperature optimum", "setting": "CsHCS1 [9]; enzyme CsHCS1", "value": 40, "unit": "°C"}
    ]}
  ]
}
